Reference: PubChem BioAssay (NCI)
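All cell lines were grown in 96-well plates and treated with compound for 48 hours. GI50 is the concentration that inhibits growth by half. TGI marks complete inhibition of growth.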

Key:
Experiment in all cases: inhibition of tumour cell growth, NCI panel, 48 h
COLO 205 colon = test system: COLO 205 colon
DU-145 prostate = test system: DU-145 prostate
EKVX NSCLC = test system: EKVX NSCLC
HS 578T breast = test system: HS 578T breast
NCI-H226 lung = test system: NCI-H226 lung
OVCAR-3 ovarian = test system: OVCAR-3 ovarian
SF-268 CNS = test system: SF-268 CNS
SF-539 CNS = test system: SF-539 CNS
SNB-75 CNS = test system: SNB-75 CNS
NCI-H522 lung = test system: NCI-H522 lung

Row | SMILES | TGI (COLO 205 colon) [µM] | TGI (DU-145 prostate) [µM] | TGI (EKVX NSCLC) [µM] | TGI (HS 578T breast) [µM] | TGI (NCI-H226 lung) [µM] | TGI (OVCAR-3 ovarian) [µM] | TGI (SF-268 CNS) [µM] | TGI (SF-539 CNS) [µM] | TGI (SNB-75 CNS) [µM] | TGI (NCI-H522 lung) [µM] | GI50 (EKVX NSCLC) [µM] | GI50 (COLO 205 colon) [µM] | GI50 (NCI-H226 lung) [µM] | GI50 (SF-268 CNS) [µM]
1 | CCOC(=O)/C=C1/Nc2cc(F)c(F)cc2NC1=O | > 100 | > 100 | > 100 | > 100 | > 100 | > 100 | > 100 | > 100 | > 100 | – | – | – | – | –
2 | Cc1oc2c(C)c3oc(=O)cc(C)c3cc2c1CN | > 100 | – | > 100 | – | 91.2 | > 100 | > 100 | > 100 | > 100 | > 100 | – | – | – | –
3 | O=C1/C(=C2\SCC(=O)N2c2ccccc2)SC(=S)N1c1ccccc1 | > 100 | > 100 | 82 | > 100 | 48.4 | 83.2 | > 100 | 85.4 | – | – | – | – | – | –
4 | C1=C[C@]2(CCC13OCCO3)COc1ccccc12 | > 100 | > 100 | > 100 | – | 81.2 | > 100 | – | – | > 100 | – | – | – | – | –
5 | NC(=S)N/N=C(\C(=O)Nc1ccc(Cl)c(Cl)c1)C1=NN(c2ccccc2)C(c2cccc([N+](=O)[O-])c2)CC1=O (centres undefined) | 36.3 | – | > 100 | – | 93.6 | 51.4 | > 100 | 50.8 | 99.7 | – | – | – | – | –
6 | C/C(NC(=O)c1ccccc1)=C(/C(=O)c1ccccc1)[C@@H]1OC(C)(C)O[C@@H]1[C@H]1COC(C)(C)O1 | 48.9 | > 100 | 48.4 | > 100 | > 100 | > 100 | > 100 | > 100 | – | 36 | – | – | – | –
7 | C/C(=N\n1c(Cc2ccccc2)n[nH]c1=O)c1ccc([N+](=O)[O-])cc1 | > 100 | > 100 | > 100 | > 100 | > 100 | > 100 | – | – | – | > 100 | – | – | – | –
8 | CC(=O)N1C(OCc2ccccc2)CCN1c1ccccc1 (centres undefined) | > 10 | > 10 | – | > 10 | > 10 | > 10 | > 10 | > 10 | > 10 | > 10 | – | – | – | –
9 | Cn1c(=O)c2[nH]c(-n3nc(-c4ccccc4)cc3N)nc2n(C)c1=O | 88.7 | 45 | > 100 | – | 33.7 | > 100 | > 100 | 27.1 | – | – | – | – | – | –
10 | O=c1c(S(=O)(=O)Oc2ccccc2)coc2cc(F)ccc12 | – | – | > 100 | > 100 | 73.6 | > 100 | > 100 | > 100 | > 100 | > 100 | – | – | – | –
11 | Cc1ccsc1/C=N/Nc1ccccn1 | > 100 | > 100 | 96.5 | > 100 | > 100 | > 100 | > 100 | – | > 100 | – | – | – | – | –
12 | COc1cc(C(CC(OC)OC)=C(C#N)C#N)cc(OC)c1OC | 26.6 | – | > 100 | – | 13.9 | 73 | > 100 | 37.1 | 82.2 | 32.9 | – | – | – | –
13 | COc1ccc(N2C(=O)C3c4[nH]c5ccccc5c4C4CCC(C(C)(C)C)CC4C3C2=O)cc1OC (centres undefined) | > 100 | – | > 100 | – | 38.8 | – | 38.3 | 34.7 | 32.5 | 33.4 | – | – | – | –
14 | O=C(NC(CO)CO)c1ccc2cc(C(=O)N3CC(CCl)c4ccc([N+](=O)[O-])cc43)[nH]c2c1 (centres undefined) | > 100 | > 100 | > 100 | > 100 | > 100 | > 100 | > 100 | > 100 | > 100 | – | – | – | – | –
15 | c1cn[nH]c1 | > 10 | – | > 10 | > 10 | > 10 | > 10 | > 10 | > 10 | > 10 | – | – | – | – | –
16 | C/C(=C/c1c(C)[nH]c(=O)[nH]c1=O)C(=O)O | > 1380 | – | > 1380 | – | > 1370 | > 1380 | > 1380 | > 1380 | > 1380 | > 1380 | 1030 | – | – | –
17 | COc1ccc(/C=C/C(c2cc(OC)c(OC)c(OC)c2)n2cncn2)cc1O (centres undefined) | 16.8 | – | > 100 | – | > 100 | – | > 100 | – | – | – | 6.07 | 3.66 | 5.93 | 0.059
18 | N#CI1OC(C(F)(F)F)(C(F)(F)F)c2ccccc21 | 26.8 | 38.4 | 30.1 | – | 49 | 29.2 | 73.9 | 36.9 | 32.4 | 27.3 | – | – | – | –
19 | Clc1cccc(N=C/C=C/Nc2cccc(Cl)c2)c1 | 29.8 | 96.2 | – | > 100 | – | 45.4 | – | 34.2 | – | 29.3 | – | – | – | –

Row | SMILES | TGI (COLO 205 colon) [µM] | TGI (DU-145 prostate) [µM] | TGI (EKVX NSCLC) [µM] | TGI (HS 578T breast) [µM] | TGI (NCI-H226 lung) [µM] | TGI (OVCAR-3 ovarian) [µM] | TGI (SF-268 CNS) [µM] | TGI (SF-539 CNS) [µM] | TGI (SNB-75 CNS) [µM] | TGI (NCI-H522 lung) [µM] | GI50 (EKVX NSCLC) [µM] | GI50 (COLO 205 colon) [µM] | GI50 (NCI-H226 lung) [µM] | GI50 (SF-268 CNS) [µM]
20 | COC1=C(OC)C(=O)C(Cc2c(Cl)nc3n2CCS3)=C(C)C1=O | 31.5 | 40 | 26.3 | 66.1 | – | 37.2 | 41.3 | 28.1 | – | 25.4 | – | – | – | –
21 | C=C(COC(=O)C(C)C)[C@H]1Oc2ccc(C(C)=O)cc2[C@@H]1OC(=O)C(C)C | > 100 | > 100 | > 100 | > 100 | > 100 | > 100 | > 100 | > 100 | > 100 | – | – | – | – | –
22 | CN1N(c2ccccc2)C(=O)C2=NC=C(C#N)C(=N)C21C (centres undefined) | > 100 | > 100 | > 100 | – | > 100 | > 100 | – | > 100 | > 100 | > 100 | – | – | – | –
23 | Cc1ccc(Nc2ccc(Nc3ccc(C)cc3S(=O)(=O)O)c3c2C(=O)c2ccccc2C3=O)c(S(=O)(=O)O)c1 | > 100 | – | > 100 | – | > 100 | > 100 | > 100 | > 100 | > 100 | > 100 | – | – | – | –
24 | COc1cc(C2C3=C(N=C4SC(C(C)=O)=C(C)N42)c2ccccc2CC3)cc(OC)c1OC (centres undefined) | > 100 | > 100 | > 100 | > 100 | > 100 | > 100 | > 100 | > 100 | > 100 | – | – | – | – | –
25 | CCCN(CCC)c1c([N+](=O)[O-])cc(C(=O)N(C)C)cc1[N+](=O)[O-] | > 100 | – | > 100 | – | – | > 100 | > 100 | > 100 | 31.5 | > 100 | – | – | – | –
26 | COC(=O)c1ccccc1N=Cc1ccc(N(CCC#N)S(=O)(=O)c2ccccc2)cc1 | > 100 | – | > 100 | – | > 100 | > 100 | > 100 | > 100 | > 100 | > 100 | – | – | – | –
27 | Oc1ccccc1C=Nc1ccccc1N=Cc1ccccc1O | > 100 | – | > 100 | – | > 100 | > 100 | > 100 | > 100 | – | 45.7 | – | – | – | –
28 | CC1(CO)C(=O)OC12CCCCC2 (centres undefined) | > 100 | – | > 100 | – | > 100 | > 100 | > 100 | > 100 | > 100 | > 100 | – | – | – | –
29 | COC(=O)C(N)CCCC(N)C(=O)NC(C)C(=O)NC(CCC(=O)NCCCNc1ccc([N+](=O)[O-])c2[nH]c3ccccc3c(=O)c12)C(N)=O (centres undefined) | 15.2 | 19.1 | 20.2 | – | 27.9 | 24.9 | 13.8 | – | 21.6 | – | – | – | – | –
30 | O=[N+]([O-])c1cc(Cl)ccc1S(=O)(=O)c1cc(Cl)cc2c1NCCC2 | > 100 | > 100 | > 100 | > 100 | > 100 | > 100 | > 100 | > 100 | > 100 | – | – | – | – | –
31 | c1ccc(-c2nc3ccccc3n3nnnc23)cc1 | > 100 | > 100 | > 100 | – | > 100 | > 100 | > 100 | > 100 | – | – | – | – | – | –
32 | CC(C)=CCC/C(C)=C/CC/C(C)=C/CSc1ccc(Cl)cc1C(=O)O | 51.6 | 56 | 37 | 49.7 | 36.8 | 30.7 | 32.7 | 36.4 | 34.3 | – | – | – | – | –
33 | Cc1nn(-c2ccccc2)c2c1N=C(C(=O)O)CC(c1ccccc1)=N2 | > 10 | > 10 | – | > 10 | – | > 10 | > 10 | > 10 | > 10 | > 10 | – | – | – | –
34 | CC1CN=C(N(C)C(=O)Nc2ccc(Cl)c(Cl)c2)S1 (centres undefined) | > 100 | > 100 | > 100 | > 100 | – | > 100 | > 100 | 52.6 | > 100 | – | – | – | – | –
35 | O=C1C=C(NCCc2cc(Br)c(O)c(Br)c2)C(=O)c2[nH]cnc21 | > 100 | > 100 | > 100 | – | > 100 | > 100 | > 100 | > 100 | 69.1 | 87.4 | – | – | – | –
36 | CC(=O)C(C(=O)C(C)(C)C)C(=O)C(C)(C)C | > 100 | > 100 | – | > 100 | – | – | > 100 | > 100 | > 100 | > 100 | – | – | – | –
37 | CCOC(=O)CN(Cc1ccccc1)Cc1c(C(=O)c2ccccc2)c2ccccc2n1C(=O)c1ccccc1 | > 100 | – | > 100 | – | > 100 | > 100 | > 100 | > 100 | > 100 | > 100 | – | – | – | –
